Assay results reported in publication PMC10879537 (Nature Communications, 2024).
“And” between values parts separate entries of the source, which are not always exact repeats. Identical values can stand only once. Like-named read-outs stand apart in the source and are kept apart here.

Key:
[1] = test system: SARS-CoV pseudotyped virus; assay: microbe, parasite or virus in culture; format: cell-based; details: for EC50: read-out: EC50 against SARS-CoV pseudotyped virus
[2] = test system: SARS-CoV-2 pseudotyped virus; assay: microbe, parasite or virus in culture; format: cell-based
SARS-CoV-2 trVLP [3] = test system: SARS-CoV-2 trVLP
in vitro [4] = details: human
PEDV strain CV777 = assay: microbe, parasite or virus in culture; format: cell-based, porcine epidemic diarrhea virus (PEDV)
in vitro [5] = details: African green monkey
GX_P2V [6] = assay: organism not typed; format: cell-based, Guangxi pangolin-CoV (GX_P2V)
[7] = test system: SADS-CoV strain CN/GDWT/2017; assay: cells; format: cell-based, swine acute diarrhoea syndrome coronavirus (SADS-CoV)
SARS-CoV-2 trVLP [8] = assay: microbe, parasite or virus in culture
SARS-CoV-2 trVLP [9] = format: cell-based
in vitro [10] = details: human, Caco-2
GX_P2V [11] = assay: microbe, parasite or virus in culture; format: cell-based, Guangxi pangolin-CoV (GX_P2V)
[12] = test system: MERS-CoV pseudotyped virus; assay: microbe, parasite or virus in culture; format: cell-based
Vero E6 cells = assay: cells; details: Chlorocebus sabaeus, Vero C1008, 48 h, read-out: Cytoxicity (%)
[13] = test system: SARS-CoV-2 live virus (SARS-CoV-2/WH-09/human/2020/CHN); assay: microbe, parasite or virus in culture; format: cell-based
[14] = Vero C1008, 48 h, read-out: Percentage of Inhibition (%)
[15] = Severe acute respiratory syndrome coronavirus 2, read-out: EC50 against SARS-CoV-2 trVLP
[16] = Vero C1008, read-out: EC50 against GX_P2V

With `COc1cc2c(cc1OC)[C@@H](Cc1ccc(Oc3cc(C[C@@H]4c5cc(OC)c(OC)cc5CCN4C)ccc3O)cc1)N(C)CC2` [Dauricine, dauricine] the EC50 ([1]; Severe acute respiratory syndrome coronavirus) was 2.63 µM, the EC50 ([2]; Severe acute respiratory syndrome coronavirus 2, read-out: EC50 SARS-CoV-2pseudotypedvirus) was 6.58 µM and the “SI (SARS-CoV-2 trVLP, Caco 2-N)” value (SARS-CoV-2 trVLP [3]; Caco-2) was over 17.61. The CC50 at 48 h (in vitro [4]) was over 25 µM, the CC50 (in vitro [4]; CC50, cytotoxicity to Huh 7 cells (Fig. 4B, SADS-CoV panel)) was over 12.5 µM and the “Percentage of Inhibition (%)” value (PEDV strain CV777) was 99.987%. The EC50 (PEDV strain CV777; Porcine epidemic diarrhea virus, Huh-7, read-out: EC50 against PEDV) was 1.7 µM, the CC50 at 48 h (in vitro [5]) was over 50 µM and the “Stage of the viral life cycle affected (time-of-addition)” value (GX_P2V [6]) was “superior inhibitory activity during the entry stage compared with the post-entry stage”. For the same molecule, the “Time of addition of anti-GX_P2V activity, Full-time” value (GX_P2V [6]) was 94.280 and 92.940 and 93.040, the “Time of addition of anti-GX_P2V activity, Post-entry” value (GX_P2V [6]) was 24.420 and 36.380 and 19.300 and the inhibition at 6.25 µM (GX_P2V [6]; Vero C1008, read-out: Inhibition against GX_P2V, full-time treatment) was about 100%. For the same molecule, the “Percentage of Inhibition (%)” value [7] was 99.922%, the EC50 ([7]; Huh-7, read-out: EC50 against SADS-CoV) was 0.84 µM and the EC50 (SARS-CoV-2 trVLP [8]; Severe acute respiratory syndrome coronavirus 2, read-out: EC50 SARS-CoV-2 trVLP) was 2.84 µM. The “Time of addition of anti-SARS-CoV-2 trVLPs activity, Entry” value (SARS-CoV-2 trVLP [9]) was 75.941 and 76.217 and 74.799, the “Time of addition of anti-SARS-CoV-2 trVLPs activity, Full-time” value (SARS-CoV-2 trVLP [9]) was 87.622 and 86.812 and 85.889 and the “Time of addition of anti-SARS-CoV-2 trVLPs activity, Post-entry” value (SARS-CoV-2 trVLP [9]) was 74.686 and 90.971 and 75.807. For the same molecule, the CC50 at 48 h (in vitro [10]) was over 50 µM, the inhibition at 1.09691 µM (GX_P2V [11]; [14]) was 10.1% and the inhibition at 1.39794 µM (GX_P2V [11]; [14]) was 95.2%. For the same molecule, the inhibition at 1.69897 µM (GX_P2V [11]; [14]) was 100%, the EC50 (GX_P2V [11]; Vero C1008, read-out: EC50 GX_P2V) was 15.7 µM and the EC50 (GX_P2V [11]; Vero C1008, read-out: EC50 against GX_P2V, repeated experiment) was 13.1 µM. For the same molecule, the EC50 ([12]; Middle East respiratory syndrome-related coronavirus, Huh-7, read-out: EC50 against MERS-CoV pseudotyped virus) was 2.13 µM.

Work on `COc1ccc2cc1Oc1ccc(cc1)CC1c3cc(c(OC)cc3CCN1C)Oc1c(OC)c(OC)c(O)c3c1C(C2)N(C)CC3` (stereo not shown) [Thalidezine (35), thalidezine] yielded an EC50 (SARS-CoV-2 trVLP [8]; [15]) of 4.37 µM, an inhibition at 0.495 µM (GX_P2V [11]; [14]) of 53.4% and an inhibition at 0.796 µM (GX_P2V [11]; [14]) of 99.8%. The inhibition at 1.097 µM (GX_P2V [11]; [14]) was 100%, the inhibition at 1.398 µM (GX_P2V [11]; [14]) was 100% and the inhibition at 1.699 µM (GX_P2V [11]; [14]) was 100%. For the same molecule, the EC50 (GX_P2V [11]; [16]) was 2.74 µM.

Work on `COc1ccc2c(c1O)-c1c(O)c(OC)cc3c1[C@H](C2)N(C)CC3` [(S)-corytuberine] yielded an inhibition at 0.39 µM (GX_P2V [11]; [14]) of 54.6% and an inhibition at 0.78 µM (GX_P2V [11]; [14]) of 42.8%.

For `COc1ccc2c(c1O)-c1c(O)c(OC)cc3c1[C@H](C2)[N+](C)(C)CC3` [Magnoflorine], the inhibition at 0.79588 µM (GX_P2V [11]; [14]) was 34.7%, the cytotoxicity at 0.193125 µM (Vero E6 cells) was 3.29% and the cytotoxicity at 0.39 µM (Vero E6 cells) was 1.03%. The cytotoxicity at 0.49485 µM (Vero E6 cells) was 8.84%, the cytotoxicity at 0.79588 µM (Vero E6 cells) was 10.2% and the cytotoxicity at 1.09691 µM (Vero E6 cells) was 12.2%. For the same molecule, the cytotoxicity at 1.39794 µM (Vero E6 cells) was 15.3% and the cytotoxicity at 1.69897 µM (Vero E6 cells) was 14.6%.

For isotetrandrine, the “Percentage of Inhibition (%)” value [1] was 83.000% and 63.000%, the EC50 [1] was 4.77 µM and the EC50 ([2]; read-out: EC50 SARS-CoV-2pseudotypedvirus) was 7.32 µM. The EC50 (SARS-CoV-2 trVLP [3]; read-out: EC50 SARS-CoV-2 trVLP) was 2.82 µM, the EC50 (PEDV strain CV777; read-out: EC50 against PEDV) was 1.67 µM and the “Time of addition of anti-GX_P2V activity, Entry” value (GX_P2V [6]) was 64.671 and 52.909 and 54.392. The “Time of addition of anti-GX_P2V activity, Full-time” value (GX_P2V [6]) was 95.271 and 94.111 and 93.848, the “Time of addition of anti-GX_P2V activity, Post-entry” value (GX_P2V [6]) was 79.054 and 80.217 and 78.230 and the EC50 ([7]; read-out: EC50 against SADS-CoV) was 3.67 µM. The “Time of addition of anti-SARS-CoV-2 trVLPs activity, Full-time” value (SARS-CoV-2 trVLP [9]) was 69.205 and 66.812 and 64.054, the “Time of addition of anti-SARS-CoV-2 trVLPs activity, Post-entry” value (SARS-CoV-2 trVLP [9]) was 57.048 and 54.613 and 56.353 and the EC50 ([13]; read-out: SARS-CoV-2 (Vero E6) EC50) was 4.47 µM. For the same molecule, the “Percentage of Inhibition (%)” value (GX_P2V [11]) was 100%, the EC50 (GX_P2V [11]; read-out: EC50 GX_P2V) was 7.43 µM and the EC50 ([12]; read-out: EC50 against MERS-CoV pseudotyped virus) was 3.31 µM.

Work on `COc1cc2c3cc1Oc1cc(ccc1O)C[C@@H]1c4c(cc(OC)c(O)c4Oc4ccc(cc4)C[C@H]3N(C)CC2)CCN1C` [L-curine] yielded an inhibition at 0.49485 µM (GX_P2V [11]; [14]) of 81.4%.

`COc1cc2c(cc1O)[C@@H](Cc1ccc(O)cc1)N(C)CC2` [(R)-N-Methylcolaurine] showed an inhibition at 0.193125 µM (GX_P2V [11]; [14]) of 25.6%, an inhibition at 0.39 µM (GX_P2V [11]; [14]) of 94.8% and an inhibition at 0.49485 µM (GX_P2V [11]; [14]) of 55.7%. It also gave an inhibition at 0.79588 µM (GX_P2V [11]; [14]) of 56.1%, a cytotoxicity at 0.193125 µM (Vero E6 cells) of 9.96% and a cytotoxicity at 0.39 µM (Vero E6 cells) of 22.3%. It also gave a cytotoxicity at 0.49485 µM (Vero E6 cells) of 20.1%, a cytotoxicity at 0.78 µM (Vero E6 cells) of 13.4% and a cytotoxicity at 0.79588 µM (Vero E6 cells) of 9.7%. The cytotoxicity at 1.39794 µM (Vero E6 cells) was 23.2%.

`CCC(CC)COC(=O)[C@H](C)N[P@](=O)(OC[C@H]1O[C@@](C#N)(c2ccc3c(N)ncnn23)[C@H](O)[C@@H]1O)Oc1ccccc1` [Remdesivir (30), remdesivir, reference compound] showed an EC50 (SARS-CoV-2 trVLP [8]; [15]) of 0.11 µM, an EC50 ([13]; Severe acute respiratory syndrome coronavirus 2, Vero C1008, read-out: SARS-CoV-2 (Vero E6) EC50) of 2.19 µM and an inhibition at 0.193 µM (GX_P2V [11]; [14]) of 91.6%. For the same molecule, the inhibition at 0.495 µM (GX_P2V [11]; [14]) was 41.5%, the inhibition at 0.796 µM (GX_P2V [11]; [14]) was 90.9% and the inhibition at 1.097 µM (GX_P2V [11]; [14]) was 99.8%. The inhibition at 1.398 µM (GX_P2V [11]; [14]) was 100%, the inhibition at 1.699 µM (GX_P2V [11]; [14]) was 100% and the EC50 (GX_P2V [11]; [16]) was 1.64 µM. The cytotoxicity at 0.796 µM (Vero E6 cells) was 6.65%, the cytotoxicity at 1.097 µM (Vero E6 cells) was 10.7% and the cytotoxicity at 1.398 µM (Vero E6 cells) was 9.43%. For the same molecule, the cytotoxicity at 1.699 µM (Vero E6 cells) was 12.3%.

With `COc1cc2c(cc1O)[C@@H](Cc1ccc(Oc3cc(C[C@@H]4c5cc(O)c(OC)cc5CCN4C)ccc3O)cc1)N(C)CC2` [Compound 32, guatteguamerine] the “Antiviral activity (bioactivity) in dose-response analysis” value (GX_P2V [11]) was “lacked antiviral activity”.

With `COc1ccc2cc3[n+](cc2c1OC)CCc1cc2c(cc1-3)OCO2` [berberine (2), berberine, reference compound] the inhibition at 0.49485 µM (GX_P2V [11]; [14]) was 52.1%, the cytotoxicity at 0.193125 µM (Vero E6 cells) was 7.94% and the cytotoxicity at 0.49485 µM (Vero E6 cells) was 11.2%.
